Measured values: ChEMBL document CHEMBL6134816, “The discovery of novel N-heterocyclic-based AKT inhibitors with potential efficacy against prostate cancer” (Eur J Med Chem, 2025)

What was measured:
PC-3 [1] = assay: cells; conditions: Homo sapiens, PC-3, 72 h
Description: Antiproliferative activity against human PC-3 cells assessed as inhibition of cell proliferation incubated for 72 hrs by MTT assay

PC-3 [2] = assay: Cell cycle arrest in human PC-3 cells assessed as accumulation of cells at G1 phase at 1 uM incubated for 48 hrs by PI staining based flow cytometric analysis (reference value: 60.75 %); format: functional
PC-3 [3] = assay: Cell cycle arrest in human PC-3 cells assessed as accumulation of cells at S phase at 5 uM incubated for 48 hrs by PI staining based flow cytometric analysis (reference value: 24.79 %); format: functional
PC-3 [4] = assay: Cell cycle arrest in human PC-3 cells assessed as accumulation of cells at G1 phase at 5 uM incubated for 48 hrs by PI staining based flow cytometric analysis (reference value: 60.75 %); format: functional
PC-3 [5] = assay: Cell cycle arrest in human PC-3 cells assessed as accumulation of cells at G2 phase at 5 uM incubated for 48 hrs by PI staining based flow cytometric analysis (reference value: 14.45 %); format: functional
PC-3 [6] = assay: Cell cycle arrest in human PC-3 cells assessed as accumulation of cells at G2 phase at 1 uM incubated for 48 hrs by PI staining based flow cytometric analysis (reference value: 14.45 %); format: functional
PC-3 [7] = assay: Cell cycle arrest in human PC-3 cells assessed as accumulation of cells at G2 phase at 10 uM incubated for 48 hrs by PI staining based flow cytometric analysis (reference value: 14.45 %); format: functional
PC-3 [8] = assay: Induction of apoptosis in human PC-3 cells assessed as apoptotic rate at 1 uM incubated for 48 hrs by Annexin V-FITC/PI staining based flow cytometric analysis relative to control; format: functional
PC-3 [9] = assay: Cell cycle arrest in human PC-3 cells assessed as accumulation of cells at G1 phase at 10 uM incubated for 48 hrs by PI staining based flow cytometric analysis (reference value: 60.75 %); format: functional
PC-3 [10] = assay: Cell cycle arrest in human PC-3 cells assessed as accumulation of cells at S phase at 1 uM incubated for 48 hrs by PI staining based flow cytometric analysis (reference value: 24.79 %); format: functional
PC-3 [11] = assay: Cell cycle arrest in human PC-3 cells assessed as accumulation of cells at S phase at 10 uM incubated for 48 hrs by PI staining based flow cytometric analysis (reference value: 24.79 %); format: functional

## CC(C)NCC(C(=O)N1CCN(c2ncnc3[nH]cnc23)CC1)c1ccc(Cl)cc1Cl (stereo not drawn)
PC-3 [1]
  IC50: 23.8 µM

## CNc1nccc(N2CCN(C(=O)C(CNC(C)C)c3ccc(Cl)cc3Cl)CC2)n1 (stereo not drawn)
PC-3 [1]
  IC50: 27.8 µM

## CNc1nc(N2CCN(C(=O)C(CNC(C)C)c3ccc(Cl)cc3Cl)CC2)c2sccc2n1 (stereo not drawn)
PC-3 [1]
  IC50: 5.9 µM

## CC(C)NCC(C(=O)N1CCN(c2ncnc3[nH]nc(Cl)c23)CC1)c1ccc(Cl)cc1Cl (stereo not drawn)
PC-3 [1]
  IC50: 3.5 µM

## CC(C)NCC(C(=O)N1CCN(c2ncnc3[nH]ncc23)CC1)c1ccc(Br)cc1 (stereo not drawn)
PC-3 [1]
  IC50: 12.4 µM

## CC(C)NCC(C(=O)N1CCN(c2ncnc3[nH]nc(Br)c23)CC1)c1ccc(Cl)cc1Cl (stereo not drawn)
PC-3 [1]
  IC50: 7.8 µM

## CNc1nc(N2CCN(C(=O)C(CNC(C)C)c3ccc(Cl)cc3Cl)CC2)c2cc[nH]c2n1 (stereo not drawn)
PC-3 [1]
  IC50: 18.1 µM

## CCn1c(-c2nonc2N)nc2c(C#CC(C)(C)O)ncc(OC[C@H]3CCCNC3)c21 [GSK-690693]
PC-3 [2]
  Activity: 48.89%
PC-3 [3]
  Activity: 46.38%
PC-3 [4]
  Activity: 48.64%
PC-3 [5]
  Activity: 4.98%
PC-3 [6]
  Activity: 5.77%
PC-3 [7]
  Activity: 3.96%
PC-3 [8]
  Activity: 10.52%
PC-3 [9]
  Activity: 48.79%
PC-3 [10]
  Activity: 45.34%
PC-3 [11]
  Activity: 47.26%

## CNc1nc(N2CCN(C(=O)C(CNC(C)C)c3ccc(Br)cc3)CC2)c2cc[nH]c2n1 (stereo not drawn)
PC-3 [1]
  IC50: 8.7 µM
